Target: human ACC2 (Homo sapiens (Human), UniProt O00763)
Experiment: ACC2 assay (spectrophotometric 384 well assay, NADH-linked kinetic method)
Assay type: biochemical
Details: hACC2 construct lacking the 128 N-terminal amino acids; 25° C., 340 nm over 15 minutes
Description: Spectrophotometric 384 Well Assay
Malonyl CoA formation by acetyl CoA carboxylases is stoichometrically linked to the consumption of ATP. ACC2 activity is measured in a NADH-linked kinetic method measuring ADP generated during the ACC reaction using a coupled lactate dehydrogenase/pyruvate kinase reaction.
The protein is then expressed in insect cells using a baculoviral expression system. Protein purification is performed by anion exchange.
All compounds are dissolved in dimethyl sulfoxide (DMSO) to a concentration of 10 mM.
The enzymatic reaction is then started by addition of a mixture of NADH, acetyl
Coenzyme A (both […].) and ATP (500 uM f.c.). The decrease of the optical density (slope S) is then determined at 25° C. at a wavelength of 340 nm over 15 minutes in a spectrophotometric reader.
Each assay microtiter plate contains wells with vehicle instead of compound as controls for the non-inhibited enzyme (100% CTL; ‘HIGH’) and wells without acetyl-CoA as controls for non-specific NADH degradation (0% CTL; ‘LOW’).

Sequence of human ACC2 (O00763 129-2458): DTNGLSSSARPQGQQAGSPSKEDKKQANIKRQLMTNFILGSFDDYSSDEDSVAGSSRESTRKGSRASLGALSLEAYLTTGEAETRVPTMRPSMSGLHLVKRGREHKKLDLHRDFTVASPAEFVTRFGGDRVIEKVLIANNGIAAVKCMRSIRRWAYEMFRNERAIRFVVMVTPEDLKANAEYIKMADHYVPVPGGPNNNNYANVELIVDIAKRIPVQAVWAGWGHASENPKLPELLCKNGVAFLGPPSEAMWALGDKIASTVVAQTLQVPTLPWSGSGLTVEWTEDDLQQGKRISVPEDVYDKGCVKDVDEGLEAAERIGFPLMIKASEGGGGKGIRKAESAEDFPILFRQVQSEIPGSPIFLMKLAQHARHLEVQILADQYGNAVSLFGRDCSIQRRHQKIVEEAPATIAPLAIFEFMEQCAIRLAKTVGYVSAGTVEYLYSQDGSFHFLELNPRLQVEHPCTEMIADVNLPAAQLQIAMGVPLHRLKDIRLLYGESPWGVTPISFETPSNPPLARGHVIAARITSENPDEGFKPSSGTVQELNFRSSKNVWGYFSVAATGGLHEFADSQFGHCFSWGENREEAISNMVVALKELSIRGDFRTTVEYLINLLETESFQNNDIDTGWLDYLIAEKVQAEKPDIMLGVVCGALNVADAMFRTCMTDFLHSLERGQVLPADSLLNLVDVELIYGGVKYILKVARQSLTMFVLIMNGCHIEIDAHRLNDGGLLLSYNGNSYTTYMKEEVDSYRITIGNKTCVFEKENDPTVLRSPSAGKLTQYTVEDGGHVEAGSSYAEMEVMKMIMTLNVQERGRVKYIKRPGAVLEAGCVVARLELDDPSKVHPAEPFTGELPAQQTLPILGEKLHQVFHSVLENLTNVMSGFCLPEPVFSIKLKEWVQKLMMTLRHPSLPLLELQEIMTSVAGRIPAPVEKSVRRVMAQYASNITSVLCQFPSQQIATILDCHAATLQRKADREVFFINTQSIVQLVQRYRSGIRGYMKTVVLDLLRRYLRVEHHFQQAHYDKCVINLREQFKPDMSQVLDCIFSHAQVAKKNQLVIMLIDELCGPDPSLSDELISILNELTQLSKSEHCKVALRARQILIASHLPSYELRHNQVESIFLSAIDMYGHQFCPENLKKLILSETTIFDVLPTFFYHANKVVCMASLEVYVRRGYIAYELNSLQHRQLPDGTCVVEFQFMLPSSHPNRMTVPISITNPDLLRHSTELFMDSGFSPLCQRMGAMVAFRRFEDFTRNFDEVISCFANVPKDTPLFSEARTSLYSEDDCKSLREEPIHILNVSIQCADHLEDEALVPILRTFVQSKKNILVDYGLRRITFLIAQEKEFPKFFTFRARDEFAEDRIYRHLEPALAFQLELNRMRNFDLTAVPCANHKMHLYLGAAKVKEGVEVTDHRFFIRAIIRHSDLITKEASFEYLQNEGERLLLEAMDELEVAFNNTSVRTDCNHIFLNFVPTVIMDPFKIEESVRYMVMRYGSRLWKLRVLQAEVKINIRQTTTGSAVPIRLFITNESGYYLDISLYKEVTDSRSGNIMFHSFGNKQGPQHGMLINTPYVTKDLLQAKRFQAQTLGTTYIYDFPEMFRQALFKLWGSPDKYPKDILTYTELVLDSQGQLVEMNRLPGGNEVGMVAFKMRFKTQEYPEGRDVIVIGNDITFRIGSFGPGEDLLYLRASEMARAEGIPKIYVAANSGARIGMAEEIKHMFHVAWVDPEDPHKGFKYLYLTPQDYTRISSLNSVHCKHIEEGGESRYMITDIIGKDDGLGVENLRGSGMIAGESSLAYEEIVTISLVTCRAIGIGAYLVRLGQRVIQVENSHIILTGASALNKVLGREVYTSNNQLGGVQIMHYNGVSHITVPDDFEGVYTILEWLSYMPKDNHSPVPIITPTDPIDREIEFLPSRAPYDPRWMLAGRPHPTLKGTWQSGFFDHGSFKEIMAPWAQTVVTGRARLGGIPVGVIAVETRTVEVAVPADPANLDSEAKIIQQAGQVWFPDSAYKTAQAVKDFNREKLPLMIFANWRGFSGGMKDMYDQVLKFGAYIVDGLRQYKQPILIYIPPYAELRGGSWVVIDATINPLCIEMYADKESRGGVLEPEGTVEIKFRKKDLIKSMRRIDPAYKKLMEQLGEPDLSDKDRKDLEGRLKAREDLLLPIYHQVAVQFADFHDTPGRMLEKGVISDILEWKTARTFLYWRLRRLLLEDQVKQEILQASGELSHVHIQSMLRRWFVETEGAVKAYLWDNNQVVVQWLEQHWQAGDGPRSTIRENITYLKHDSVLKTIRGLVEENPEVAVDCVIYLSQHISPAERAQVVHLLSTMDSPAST

## C=CCNC(=O)C(C)c1ccc(O[C@@H]2CCN(c3ncnc(OCC(C)(F)F)c3F)C2)cc1 (stereo partly drawn) [Example 1.45]
  IC50: 0.463 µM

## CC(C(=O)NCC(F)F)c1ccc(O[C@@H]2CCN(c3ncnc(OCC(C)(F)F)c3F)C2)cc1 (stereo partly drawn) [Example 1.46]
  IC50: 0.47 µM

## CC[C@@H](C)NC(=O)C(C)c1ccc(O[C@@H]2CCN(c3ncnc(OCC(C)(C)O)c3Cl)C2)cc1 (stereo partly drawn) [Example 1.47]
  IC50: 0.472 µM

## CC(C(=O)Nc1cccnc1)c1ccc(O[C@@H]2CCN(c3ncnc(OCC(C)(F)F)c3F)C2)cc1 (stereo partly drawn) [Example 1.48]
  IC50: 0.48 µM

## CC(C)NC(=O)C(C)c1ccc(O[C@@H]2CCN(c3ncnc(OCC(C)(C)O)c3Cl)C2)cc1 (stereo partly drawn) [Example 1.49]
  IC50: 0.492 µM

## CC(C(=O)NC1CCC1)c1ccc(O[C@@H]2CCN(c3ncnc(OCC(C)(C)O)c3Cl)C2)cc1 (stereo partly drawn) [Example 1.50]
  IC50: 0.501 µM

## CC(C(=O)NCCF)c1ccc(O[C@@H]2CCN(c3nc(N(C)C)ncc3F)C2)cc1 (stereo partly drawn) [Example 1.51]
  IC50: 0.512 µM

## CCCNC(=O)C(C)c1ccc(O[C@@H]2CCN(c3ccc(OCC4CC4(F)F)cn3)C2)cc1 (stereo partly drawn) [Example 1.52]
  IC50: 0.533 µM

## C=C(C)CNC(=O)C(C)c1ccc(O[C@@H]2CCN(c3ncnc(OCC(C)(F)F)c3F)C2)cc1 (stereo partly drawn) [Example 1.53]
  IC50: 0.538 µM

## CC(C(=O)NCCF)c1ccc(O[C@@H]2CCN(c3ncnc(OCC(C)(C)O)c3Cl)C2)cc1 (stereo partly drawn) [Example 1.54]
  IC50: 0.547 µM

## CC(C(=O)NCCF)c1ccc(O[C@@H]2CCN(c3ncnc(OCC(C)(F)F)c3F)C2)cc1 (stereo partly drawn) [Example 1.55]
  IC50: 0.573 µM

## CNC(=O)C(C)c1ccc(O[C@@H]2CCN(c3nc(N(C)C)ncc3F)C2)cc1 (stereo partly drawn) [Example 1.56]
  IC50: 0.579 µM

## CC(C(=O)N[C@H](C)CO)c1ccc(O[C@@H]2CCN(c3ccc(OCC4CC4(F)F)cn3)C2)cc1 (stereo partly drawn) [Example 1.57]
  IC50: 0.591 µM

## CC[C@@H](C)NC(=O)C(C)c1ccc(O[C@@H]2CCN(c3ccc(OCC4CC4(F)F)cn3)C2)cc1 (stereo partly drawn) [Example 1.58]
  IC50: 0.598 µM

## CC[C@@H](C)NC(=O)C(C)c1ccc(O[C@@H]2CCN(c3ncnc(OCC(C)(F)F)c3F)C2)cc1 (stereo partly drawn) [Example 1.59]
  IC50: 0.603 µM

## CCCNc1nccc(N2CC[C@@H](Oc3ccc(C(C)C(=O)NC4COC4)cc3)C2)c1F (stereo partly drawn) [Example 1.61]
  IC50: 0.626 µM

## CC(C(=O)NCC(F)(F)F)c1ccc(O[C@@H]2CCN(c3ccc(OCC4CC4(F)F)cn3)C2)cc1 (stereo partly drawn) [Example 1.62]
  IC50: 0.637 µM

## CC(C)NC(=O)C(C)c1ccc(O[C@@H]2CCN(c3ccc(OCC4CC4(F)F)cn3)C2)cc1 (stereo partly drawn) [Example 1.63]
  IC50: 0.652 µM

## CC(C(=O)NCC(F)(F)F)c1ccc(O[C@@H]2CCN(c3ncnc(OCC(C)(F)F)c3F)C2)cc1 (stereo partly drawn) [Example 1.64]
  IC50: 0.658 µM

## CCCNC(=O)C(C)c1ccc(O[C@@H]2CCN(c3nc(N(C)C)ncc3F)C2)cc1 (stereo partly drawn) [Example 1.65]
  IC50: 0.667 µM

## CC(C(=O)NC1CCC1)c1ccc(O[C@@H]2CCN(c3ncnc(OCC(C)(F)F)c3F)C2)cc1 (stereo partly drawn) [Example 1.66]
  IC50: 0.687 µM

## CC(C(=O)NC1COC1)c1ccc(O[C@@H]2CCN(c3ccc(OCC4CC4(F)F)cn3)C2)cc1 (stereo partly drawn) [Example 1.67]
  IC50: 0.706 µM

## CC(C(=O)NC1COC1)c1ccc(O[C@@H]2CCN(c3nc(N(C)C)ncc3F)C2)cc1 (stereo partly drawn) [Example 1.68]
  IC50: 0.724 µM

## CC(C(=O)NCC(F)(F)F)c1ccc(O[C@@H]2CCN(c3nc(N(C)C)ncc3F)C2)cc1 (stereo partly drawn) [Example 1.69]
  IC50: 0.748 µM

## CC(C(=O)Nc1cncnc1)c1ccc(O[C@@H]2CCN(c3ccc(OCC4CC4(F)F)cn3)C2)cc1 (stereo partly drawn) [Example 1.70]
  IC50: 0.749 µM

## C=CCCNC(=O)C(C)c1ccc(O[C@@H]2CCN(c3ccnc(NCCC)c3F)C2)cc1 (stereo partly drawn) [Example 1.71]
  IC50: 0.779 µM

## CCCNc1nccc(N2CC[C@@H](Oc3ccc(C(C)C(=O)NC(C)CO)cc3)C2)c1F (stereo partly drawn) [Example 1.72]
  IC50: 0.789 µM

## CCN(C)C(=O)C(C)c1ccc(O[C@@H]2CCN(c3ccc(OCC4CC4(F)F)cn3)C2)cc1 (stereo partly drawn) [Example 1.73]
  IC50: 0.798 µM

## CC(C(=O)NCC(F)(F)F)c1ccc(O[C@@H]2CCN(c3ncnc(OCC(C)(C)O)c3Cl)C2)cc1 (stereo partly drawn) [Example 1.74]
  IC50: 0.813 µM

## CCCNC(=O)C(C)c1ccc(O[C@@H]2CCN(c3ncnc(OCC(C)(F)F)c3F)C2)cc1 (stereo partly drawn) [Example 1.75]
  IC50: 0.818 µM

## CC(CO)NC(=O)C(C)c1ccc(O[C@@H]2CCN(c3ncnc(OCC(C)(F)F)c3F)C2)cc1 (stereo partly drawn) [Example 1.76]
  IC50: 0.838 µM

## CC(CO)NC(=O)C(C)c1ccc(O[C@@H]2CCN(c3nc(N(C)C)ncc3F)C2)cc1 (stereo partly drawn) [Example 1.77]
  IC50: 0.849 µM

## CC(C(=O)NC1CCC1)c1ccc(O[C@@H]2CCN(c3nc(N(C)C)ncc3F)C2)cc1 (stereo partly drawn) [Example 1.78]
  IC50: 0.878 µM

## CC(C)CNC(=O)C(C)c1ccc(O[C@@H]2CCN(c3ccc(OCC4CC4(F)F)cn3)C2)cc1 (stereo partly drawn) [Example 1.79]
  IC50: 0.907 µM

## CC(C)NC(=O)C(C)c1ccc(O[C@@H]2CCN(c3ncnc(OCC(C)(F)F)c3F)C2)cc1 (stereo partly drawn) [Example 1.80]
  IC50: 0.907 µM

## CC(C)NC(=O)C(C)c1ccc(O[C@@H]2CCN(c3nc(N(C)C)ncc3F)C2)cc1 (stereo partly drawn) [Example 1.81]
  IC50: 0.934 µM

## CC(C(=O)NC1CCC1)c1ccc(O[C@@H]2CCN(c3ccc(OCC4CC4(F)F)cn3)C2)cc1 (stereo partly drawn) [Example 1.82]
  IC50: 0.94 µM

## CC(C(=O)NCC1CC1)c1ccc(O[C@@H]2CCN(c3ncnc(OCC(C)(C)O)c3Cl)C2)cc1 (stereo partly drawn) [Example 1.83]
  IC50: 1.07 µM

## CC(CC#N)NC(=O)C(C)c1ccc(O[C@@H]2CCN(c3ccc(OCC4CC4(F)F)cn3)C2)cc1 (stereo partly drawn) [Example 1.84]
  IC50: 1.12 µM

## CC(C(=O)NCC1COC1)c1ccc(O[C@@H]2CCN(c3ncnc(OCC(C)(C)O)c3Cl)C2)cc1 (stereo partly drawn) [Example 1.85]
  IC50: 1.23 µM

## CC(C(=O)NCCCO)c1ccc(O[C@@H]2CCN(c3ccc(OCC4CC4(F)F)cn3)C2)cc1 (stereo partly drawn) [Example 1.86]
  IC50: 1.38 µM

## CC(=O)Nc1nc(CNC(=O)C(C)c2ccc(O[C@@H]3CCN(c4ncnc(OCC(C)(F)F)c4F)C3)cc2)cs1 (stereo partly drawn) [Example 1.87]
  IC50: 1.38 µM

## CC(C(=O)NC[C@@H](C)O)c1ccc(O[C@@H]2CCN(c3ccc(OCC4CC4(F)F)cn3)C2)cc1 (stereo partly drawn) [Example 1.88]
  IC50: 1.78 µM

## CC(C(=O)NC[C@H](C)O)c1ccc(O[C@@H]2CCN(c3ccc(OCC4CC4(F)F)cn3)C2)cc1 (stereo partly drawn) [Example 1.89]
  IC50: 1.88 µM

## C#CC(C)NC(=O)C(C)c1ccc(O[C@@H]2CCN(c3ccnc(NCCC)c3F)C2)cc1 (stereo partly drawn) [Example 1.90]
  IC50: 2.23 µM

## CC(C(=O)NC1CCOCC1)c1ccc(O[C@@H]2CCN(c3ncnc(OCC(C)(C)O)c3Cl)C2)cc1 (stereo partly drawn) [Example 1.91]
  IC50: 2.92 µM

## CCCNc1nccc(N2CC[C@@H](Oc3ccc(C(C)C(=O)NCC4CC(F)(F)C4)cc3)C2)c1F (stereo partly drawn) [Example 1.92]
  IC50: 3.7 µM

## CC(C(=O)N1CC(F)C1)c1ccc(O[C@@H]2CCN(c3nc(N(C)C)ncc3F)C2)cc1 (stereo partly drawn) [Example 1.93]
  IC50: 5.49 µM

## CCNC(=O)C(C)c1ccc(O[C@@H]2CCN(c3ccnc(N(CC)CC)n3)C2)cc1 (stereo partly drawn) [Example 2.1, (R)-2-(4-[1-(2-Diethylamino-pyrimidin-4-yl)-pyrrolidin-3-lyoxy]-phenyl)-N-ethyl-propionamide]
  IC50: 0.095 µM

## CCNC(=O)C(C)c1ccc(O[C@@H]2CCN(c3ccnc(N(C)CC)n3)C2)cc1 (stereo partly drawn) [Example 2.2]
  IC50: 0.179 µM

## CCCN(C)c1nccc(N2CC[C@@H](Oc3ccc(C(C)C(=O)NCC)cc3)C2)n1 (stereo partly drawn) [Example 2.3]
  IC50: 0.188 µM

## CCNC(=O)C(C)c1ccc(O[C@@H]2CCN(c3ccnc(N4CCC(F)(F)C4)n3)C2)cc1 (stereo partly drawn) [Example 2.4]
  IC50: 0.399 µM

## CCNC(=O)C(C)c1ccc(O[C@@H]2CCN(c3ccnc(N(C)C4CC4)n3)C2)cc1 (stereo partly drawn) [Example 2.5]
  IC50: 0.575 µM

## CCNC(=O)C(C)c1ccc(O[C@@H]2CCN(c3ccnc(N4CCOCC4)n3)C2)cc1 (stereo partly drawn) [Example 2.6]
  IC50: 0.808 µM

## CC(C(=O)NC1CC1)c1ccc(O[C@@H]2CCN(c3ncnc(OCC(C)(C)O)c3F)C2)cc1 (stereo partly drawn) [Example 3.1, N-Cyclopropyl-2-(4-(1-[5-fluoro-6-(2-hydroxy-2-methyl-propoxy)-pyrimidin-4-yl]-(R)-pyrrolidin-3-yloxy)-phenyl)-propionamide]
  IC50: 0.235 µM

## CC(C(=O)NC1CC1C)c1ccc(O[C@@H]2CCN(c3ncnc(OCC(C)(C)O)c3F)C2)cc1 (stereo partly drawn) [Example 3.2]
  IC50: 0.259 µM

## CCCNc1ncnc(N2CC[C@@H](Oc3ccc(C(C)C(=O)NC4CC4)cc3)C2)c1F (stereo partly drawn) [Example 3.3]
  IC50: 0.28 µM

## CC(C(=O)Nc1cccc(F)c1)c1ccc(O[C@@H]2CCN(c3nc(N(C)C)ncc3F)C2)cc1 (stereo partly drawn) [Example 3.4]
  IC50: 0.3 µM

## CC(C(=O)Nc1cccnc1)c1ccc(O[C@@H]2CCN(c3ncnc(OCC(C)(C)O)c3Cl)C2)cc1 (stereo partly drawn) [Example 3.5]
  IC50: 0.318 µM

## CC(C(=O)Nc1cccnc1)c1ccc(O[C@@H]2CCN(c3nc(N(C)C)ncc3F)C2)cc1 (stereo partly drawn) [Example 3.6]
  IC50: 0.352 µM

## CC(C(=O)NCC(F)F)c1ccc(O[C@@H]2CCN(c3ncnc(OCC(C)(C)O)c3F)C2)cc1 (stereo partly drawn) [Example 3.7]
  IC50: 0.613 µM

## CCNC(=O)C(C)c1ccc(O[C@@H]2CCN(c3ncnc(OCC(C)(C)O)c3F)C2)cc1 (stereo partly drawn) [Example 3.8]
  IC50: 0.622 µM

## CCCNc1ncnc(N2CC[C@@H](Oc3ccc(C(C)C(=O)NC4CC4C)cc3)C2)c1F (stereo partly drawn) [Example 3.9]
  IC50: 0.739 µM

## CCCNc1ncnc(N2CC[C@@H](Oc3ccc(C(C)C(=O)NCC(F)F)cc3)C2)c1F (stereo partly drawn) [Example 3.10]
  IC50: 0.955 µM

## CCCNc1ncnc(N2CC[C@@H](Oc3ccc(C(C)C(=O)NCC)cc3)C2)c1F (stereo partly drawn) [Example 3.12]
  IC50: 1.03 µM

## CCNC(=O)C(C)c1ccc(O[C@@H]2CCN(c3ccc(OCC)cc3)C2)cc1 (stereo partly drawn) [Example 4.1, 2-(4-[1-(4-Ethoxyl-phenyl)-(R)-pyrrolidin-3-yloxy]-phenyl)-N-ethyl-propionamide]
  IC50: 0.288 µM

From patent publication US9278954B2, “Pyrrolidine derivatives, pharmaceutical compositions and uses thereof” (Boehringer Ingelheim International GmbH, priority 2013, dated 2016)
